One series relates to pre-existing TFH cells. The series can be described thus: OVA/Alum immunization, 4EGI-1 after formation of TFH cells. Type of series: in vivo, mouse. Here is the method: OVA protein (Sigma A5503) was diluted in PBS and then in 20 mg/mL Imject Alum (ThermoFisher 77161) and mixed at room temperature for 30 minutes prior to i.p. injection of 100 μg OVA in 200 μL. When stated, mice were treated i.p. daily from day 0 to 6 or day 0 to 13 (just for TFR analysis) following OVA/Alum immunization with 25 mg/kg 4EGI-1 (MedChemExpress) or from day 7 to 13 following OVA/Alum immunization with 50 mg/kg or 75 mg/kg 4EGI-1. Vehicle control mice were administered 6 μL DMSO in 194 μL PBS i.p.
PVDF-coated 96-well plates (Millipore) were activated with methanol for 2 minutes, washed with PBS, and coated with 4 μg/mL OVA overnight at 4° C. Plates were blocked with 1% BSA for 2 hours at 37° C. prior to incubation with 1×10^7 splenocytes in RPMI containing 2% Ultra-low IgG FCS, 55 μM 2ME, and 100 U/mL penicillin and 100 μg/mL streptomycin in the top well. Cells were diluted by 1/2 each row going down the plate and incubated immobile overnight at 37° C. Plates were washed with water+0.05% Tween 20 for 5 min prior to 3 washes in PBS+0.05% Tween-20 for 10 minutes. Plates were incubated with 1:1000 HRP-coupled goat anti-mouse IgG1 antibody (Southern Biotech) in PBS+0.05% Tween 20 for 2 h prior to 3 washes in PBS+0.05% Tween 20 and incubation in tetramethylbenzidine (TMB) ELISA substrate buffer (ThermoFisher). Plates were washed once in distilled deionized water and spots were manually enumerated and antibody-secreting cells (ASC) per million splenocytes was determined.
For quantification of OVA-specific IgG1, high-binding 96-well plates (Costar) were coated with 10 μg/mL OVA protein. For S. aureus-specific IgG1, plates were coated with heat-killed S. aureus (heat-killed at 80° C. for 30 min). For total IgE, plates were coated with 2 μg/mL rat anti-mouse IgE (Southern Biotech). Following overnight incubation at 4° C., plates were blocked with 1% BSA for 30 min at 37° C. After blocking, serum (diluted 1/20 initially then 1/2 down the plate) was incubated at 37° C. for 2 hours, plates were washed 3 times in PBS and then incubated with 1:1000 anti-mouse IgG1-HRP (Southern Biotech) or anti-mouse IgE-HRP (Southern Biotech) for 1 hour at 37° C. Plates were washed 3 times in PBS and incubated with TMB substrate. Following development, TMB Stop Solution (BioLegend®) was added and plates were read at […].

In series [1] the test system is eIF4E cap-dependent protein synthesis in the CD4+ T cell compartment. The series can be described thus: SUnSET protein synthesis assay in CD4+ T cells of mice dosed with 4EGI-1. Type of series: in vivo, mouse. Conditions: 25 mg/kg daily. Here is the method:
Determination of eIF4E activity in vivo should compare untreated to treated animals. Specimens may include single-cell suspensions of splenocytes isolated using Percoll gradient purification followed by plating in X-VIVO media (Lonza) containing 5% human AB serum (Sigma) and Glutamax at 37° C. for one hour and subjected to SuNSET assay for 10 minutes to determine active protein synthesis rates according to manufacturer instructions (AG Scientific) and shown in FIGS. 10A and 14B.
Mice were immunized with 100 μg OVA/Alum and 7 days following, spleens were harvested and single-cell suspensions were generated. Splenocytes were incubated in mouse T cell media (detailed in Silencing of eIF4E in OT2 T cells by lentivirus transduction) with 0-25 μM 4EGI-1 for 4 hours at 37° C. Cells were stained with a live/dead viability marker and then for extracellular expression of CD4, CXCR5, PD-1, or ICOS or intranuclear expression of BCL6. For the SuNSET assay, cells from above were incubated 37° C. with 10 μg/mL puromycin for 10 minutes. Control samples were incubated with puromycin and 100 μg/mL cycloheximide. Cells were incubated with a live/dead viability marker and extracellular stain prior to fixation and permeabilization (BD Biosciences Fixation/Permeabilization Solution) and intracellular staining with anti-puromycin followed by anti-mouse IgG2a antibody conjugated to Alexa Fluor 488.

[2] abbreviates: 75 mg/kg, day 7 to 13 after OVA/Alum.
Where [3] appears, read: 4EGI-1 day 7 to 13 after OVA/Alum.

As for `O=C(O)C(Cc1ccccc1[N+](=O)[O-])=NNc1nc(-c2ccc(Cl)c(Cl)c2)cs1` (mixture of isomers) [4EGI-1], in the series on pre-existing TFH cells (setting [2]), the “reduction of CD4+ T cell protein synthesis (SUnSET)” value was “approximately half” and the “total number of CD4+ T cells in spleen” value is “without significantly reducing”. For the same compound, in the series with pre-existing TFH cells (setting [3]), the “reduction of levels of GC B cells” value was determined as 3 fold, the “reduction of levels of OVA-specific IgG1 ASC cells” value was 3 fold, the “reduction of levels of pre-existing splenic CD4+ TFH cells” value is 3 fold and the “serum OVA-specific IgG1 antibody” value is given as “moderately reduced”. The tolerability result in series [1] (mice) is “well tolerated”. Further, the “inhibition of eIF4E cap-dependent protein synthesis in the CD4+ T cell compartment” value in series [1] (uninfected mice, SUnSET (FIG. 1A)) is “approximately 30%”.

The record behind these values is patent publication US12168003B2, “Selective inhibition of T follicular helper cells for treatment of autoimmune disorders” (priority 2019, dated 2024).
